The results in this text go back to US20040072824A1, “Methods and compositions for the treatment of cancer” (priority 2001, published 2004).

The subject of data set [1] is lymphocytes from healthy donors. Briefly: Cytotoxicity on lymphocytes from healthy donors. Format: cell-based, human. The note with it: 48 hours after treatment, even at 1:1,000 dilution; three healthy donors. On the procedure: (§1) Several dilutions of each compound tested were added to the wells (12 wells per plate, TPP), and 1 ml of cells from the parent solution was added per well after a line had been completed. The dilutions were made using the culture medium, and following dilutions were tested: control, which contained no compound of this invention; 1:100; 1:1,000; 1:2,000; 1:5,000; and 1:10,000. The starting concentrations for these dilutions were: 50 mg/ml for compound A; 10 mg/ml for compound B; 25 mg/ml for compound C; and 5 mg/ml for compound D. The results were analyzed by manual counting and Alamar reduced assay.
The blood from healthy donors was collected on citrate and diluted 1:1 with 0.15M NaCl. The dilution (6 ml) was loaded onto 3 ml of lymphoprep® (Nycomed), and the mixture was centrifuged at 800 g for 30 minutes at room temperature. The white cells were isolated and washed with RPMI1640 and 10% FBS. The white cells were diluted to provide 450,000 cells/m in RPMI1640/10% FSB medium. The tests for the compounds of this invention were performed according to the same procedures described in Section 5.1.1.

Another data set relates to TCTP. Nature of the data set: TCTP expression in treated U937 cells (western blot). Format: cell-based. The following applies: 24 hours, various dilutions. The protocol:
U937 cells were treated with various dilutions of hydroxyzine, brompheniramine and promethazine for 24 hours as denoted in FIG. 23A. Starting concentrations were: 50 mg/ml for […] (“A”); 10 mg/ml for brompheniramine (“B”); and 25 mg/ml for promethazine (“C”). The proteins were isolated from these cells and loaded onto a gel for western blot analysis. A specific anti-TCTP (anti-HRF) antibody was used to visualize the location of TCTP. […] The level of actin in equal loading of extract was visualized by antiactin antibody (Santa Cruz Biotechnology). No substantial difference between the level of actin in treated and untreated cells was observed.
(In general: Immunoblotting shows a protein as a band on a membrane.)

Data set [2] relates to K562, U937, Jurkat, T47-D, MCF7, BT20 and 184B5 cell lines. Nature of the data set: Cytotoxicity in malignant and immortalized cell lines (manual counting, Alamar assay). Format: cell-based. The note with it: for cytotoxic activity: dilutions greater than 1:1,000, especially about 1:10,000; for cytotoxicity: dilutions of from 1:100 to 1:1,000, 48 and 144 hours after treatment. On the procedure: These four compounds were added at different concentrations to cultures of various malignant cell lines and normal cells. The cell lines used for these tests were the following:
All leukemic cell lines were grown and used in logarithmic phase. After one day of treatment, the cells were isolated, counted and diluted in a regular growth medium to provide the cell density of about 75×10^3 cells/ml for reading on plates at 48 hours after the treatment, and […] for reading at 144 hours after the treatment.
as §1
(§2) The cells were grown on their respective propagation medium and seeded 24 hours before the compounds are added. The cells were trypsinized, and 50,000 cells/well and 10,000 cells/well were seeded in order to read the plates at 48 hours and 144 hours after being treated by the compounds, respectively.
(§3) On the day of the treatment, the medium was replaced by 10 ml each of series dilution of the compounds, consisting of: control, which contained no compound of this invention; 1:100 dilution; 1:1,000 dilution; 1:2,000 dilution; and 1:5,000 dilution. The starting concentrations for these dilutions were: 50 mg/ml for compound A; 10 mg/ml for compound B; 25 mg/ml for compound C; and 5 mg/ml for compound D. The dilution was made using the growth medium.
A tested compound is regarded as being active in cytotoxicity where the percentage of surviving cells after the treatment with the compound is less than 30%.

Another data set concerns U937. It is filed as in vivo. The note with it: treatment from day 1, cells inoculated after more than 24 hours, daily administration. On the procedure:
The second protocol was designed to test the preventive effects of the compounds of this invention on tumorigenesis. In this protocol, the animals have been treated with various compounds of the present invention on day 1. After more than 24 hours, tumoral cells were inoculated. The administration of the compounds of this invention was maintained daily. The cell line used for this test was U937.

The subject of data set [3] is MDA-MB-231 (breast cancer line). Nature of the data set: Curative effects on palpable tumors, MDA-MB-231 cells in scid/scid mice. Format: in vivo. The note with it: 11.25 mg/kg or 22.5 mg/kg daily once tumors palpable. On the procedure: In this series of experiments, effects of various compounds of the present invention on tumor development were tested using two protocols. The first protocol is directed to the testing of curative effects of these compounds in different cell lines. In this protocol, cancerous cells are inoculated to the animals, and the inoculated animals were left without any further treatment until the development of tumors. As soon as the tumors became palable (4 mm^3), the compounds of this invention were administered daily to the animals.

In the next data set the test system is U937 cells. Briefly: Antineoplastic activity, U937 cells injected in scid/scid mice, treatment from day 1. Format: in vivo. The following applies: 11.25 mg/kg daily intraperitoneally; six mice. On the procedure:
Ten million U937 cells were subcutaneously injected into scid/scid mice. One injection was carried out per each of the 6 mice tested per set. The excipient or the compounds tested were administered intraperitoneally on day 1, i.e., the day of U937 cell line inoculation, of the experiment. The excipients or compounds were administered once daily. The tumor sizes were measured on day 5, day 8, day 12, day 14 and day 19 after the injection.

Data set [4] relates to Poly ADP-Ribose Polymerase (PARP). Briefly: PARP cleavage in treated U937 cells (western blot). The following applies: 24 hours. It is filed as cell-based. The protocol: U937 cells were treated with various concentrations of hydroxyzine and promethazine for 24 hours. The proteins were isolated from these cells and loaded onto a gel for a western blot analysis. A specific anti-PARP antibody was used to visualize the location of PARP.

The subject of a further data set is LoVo cancer cells. Nature of the data set: Cytotoxicity on LoVo cancer cells. The following applies: LoVo colorectal adenocarcinoma cells. Format: cell-based. On the procedure: as §2, §3
In data set [5] the test system is blastic cells from AML patients. Briefly: Inhibition of viability of fresh leukemic cells (trypan blue exclusion). It is filed as cell-based, human. The note with it: Homo sapiens, day 3; for cytotoxicity at 100 µM: 10^-4 M; for cytotoxicity at 10 µM: 10^-5 M. In a few lines: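 Blasts from AML samples 1 to 5 (least to most differentiated) were incubated with or without anti-histamine derivatives, with Polaramine as negative control. Viable counts by trypan blue exclusion at day 3, with Wright-Giemsa morphology. Values are % growth inhibition versus negative control.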

Setting [6] is: 72 h, MEAN over AML patients, read-out: In Vitro Percent Inhibition of Viability, MEAN.
[7] abbreviates: 72 h, patient ID 4, FAB AML2, read-out: In Vitro Percent Inhibition of Viability.
The mark [8] stands for this setting: 72 h, patient ID 14, FAB AML5, read-out: In Vitro Percent Inhibition of Viability.
The mark [9] stands for this setting: AML1, 72 h, patient ID 1, FAB AML1, read-out: In Vitro Percent Inhibition of Viability.

Where a name gives a salt, the structure may show the parent alone. Read-outs that look alike come from different tables or passages of the source.

As for `CC(CN1c2ccccc2Sc2ccccc21)N(C)C` (stereo not shown) [promethazine], in data set [1], the surviving cell counts result is listed as “substantial”. Besides, the “expression of TCTP” value with TCTP was “inhibit the expression of TCTP”. Moreover, in data set [2], the cytotoxic activity entry was “little cytotoxic activity” and the cytotoxicity result is listed as “very good cytotoxicity”. The “tumor growth compared to the negative control” value in the data set on U937 is given as “decrease in tumor growth”. Also, the tumor volume entry in [3] is recorded as “The same is also true for certain animals”. The “mice that developed a tumor” value in the data set on U937 cells is “one out of six”. Further, in data set [4], the “PARP cleavage (induction of apoptosis)” value is “cleave PARP”. Moreover, in the data set with LoVo cancer cells, the “growth / resistance of LoVo cells” value is listed as “unaffected”. Besides, in the data set with LoVo cancer cells (listed as C), the “growth / resistance of LoVo cells” value is given as “totally resistant”.
Consider `OCCOCCN1CCN(C(c2ccccc2)c2ccc(Cl)cc2)CC1` (stereo not shown) [hydroxyzine, hydroxyzine dihydrochloride], for which the surviving cell counts result in data set [1] is “substantial”. Besides, the “expression of TCTP” value in the data set with TCTP is on record as “inhibit the expression of TCTP”. The cytotoxicity at 100 µM in data set [5] (setting [6]) came out at 55%; in [5] (setting [7]) it was 44%; in data set [5] (setting [8]) it was 45%; in data set [5] (setting [9]) it was 77%. Moreover, the cytotoxicity at 10 µM in data set [5] (setting [6]) turned out to be 12%; in data set [5] (setting [7]) it was 9%; in data set [5] (setting [8]), 18%; in data set [5] (setting [9]) it was 10%. Further, in [2], the cytotoxic activity result was “little cytotoxic activity”. Also, the cytotoxicity entry in data set [2] is reported as “very good cytotoxicity”. For the same compound, the “PARP cleavage (induction of apoptosis)” value in data set [4] is reported as “cleave PARP”. Besides, the “growth / resistance of LoVo cells” value in the data set with LoVo cancer cells (dihydrochloride) is “unaffected”; in the data set on LoVo cancer cells (listed as A, dihydrochloride) it was “totally resistant”.
